Experimental data published in patent publication US20150315188A1, “COMPOUNDS AND METHODS FOR TREATMENT OF HYPERTENSION” (MEDIVATION TECHNOLOGIES, INC., priority 2012, published 2015).

What was measured:
Set-up in all cases: purchased Milipore (Millipore)
[1] = target: T1, Human adrenergic α2B receptor (Homo sapiens, UniProt P18089); assay: Radioligand binding, adrenergic α2B (Protocol Group B); conditions: Protocol Group B; estimated Ki; read-out: Ki α2B
T1 sequence (P18089 1-450): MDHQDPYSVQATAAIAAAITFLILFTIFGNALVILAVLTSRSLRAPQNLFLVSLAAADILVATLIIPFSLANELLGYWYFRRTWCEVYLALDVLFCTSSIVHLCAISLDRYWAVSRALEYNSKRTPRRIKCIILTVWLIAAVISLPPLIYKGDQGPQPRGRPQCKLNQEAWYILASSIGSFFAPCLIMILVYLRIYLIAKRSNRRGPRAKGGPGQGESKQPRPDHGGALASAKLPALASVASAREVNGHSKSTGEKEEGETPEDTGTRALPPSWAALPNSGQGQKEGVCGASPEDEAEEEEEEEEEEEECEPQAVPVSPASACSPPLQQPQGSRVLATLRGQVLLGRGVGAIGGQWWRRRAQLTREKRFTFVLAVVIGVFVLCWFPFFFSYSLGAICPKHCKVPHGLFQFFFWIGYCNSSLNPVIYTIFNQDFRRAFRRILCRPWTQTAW
Outline: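 Compounds at various concentrations in 1% DMSO were tested on recombinant membranes in Tris-HCl pH 7.4 buffer containing MgCl2, CaCl2 and 0.2% BSA.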

[2] = target: T2, Human adrenergic α2A receptor (Homo sapiens, UniProt P08913); assay: Radioligand binding, adrenergic α2A (Protocol Group B); conditions: Protocol Group B; estimated Ki
T2 sequence (P08913 1-465): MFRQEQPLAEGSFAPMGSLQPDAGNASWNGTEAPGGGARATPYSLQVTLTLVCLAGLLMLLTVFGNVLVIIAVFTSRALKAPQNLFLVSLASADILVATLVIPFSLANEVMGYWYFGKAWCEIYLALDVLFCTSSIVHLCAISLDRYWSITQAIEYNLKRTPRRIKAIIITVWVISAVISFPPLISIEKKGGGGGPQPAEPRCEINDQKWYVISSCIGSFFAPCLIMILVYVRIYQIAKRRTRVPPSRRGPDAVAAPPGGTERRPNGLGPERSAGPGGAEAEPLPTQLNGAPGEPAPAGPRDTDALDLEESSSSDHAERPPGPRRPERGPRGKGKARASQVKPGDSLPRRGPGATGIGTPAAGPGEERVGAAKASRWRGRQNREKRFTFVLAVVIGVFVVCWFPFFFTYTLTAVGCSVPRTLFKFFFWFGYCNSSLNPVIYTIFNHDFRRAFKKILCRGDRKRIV
Outline: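 Compounds (1% DMSO vehicle, various concentrations) competed against 2 nM [^3H]MK-912 on recombinant receptor membranes for 60 min at 25° C, Tris-HCl pH 7.4 buffer with Mg2+, Ca2+, BSA. Bound radioligand filtered and counted; 10 μM rauwolscine set nonspecific binding. Values: percent inhibition of specific binding or estimated Ki.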

[3] = target: T3, Human adrenergic α1B receptor (Homo sapiens, UniProt P35368); assay: Radioligand binding, adrenergic α1B (Protocol Group B); conditions: Protocol Group B; estimated Ki
T3 sequence (P35368 1-520): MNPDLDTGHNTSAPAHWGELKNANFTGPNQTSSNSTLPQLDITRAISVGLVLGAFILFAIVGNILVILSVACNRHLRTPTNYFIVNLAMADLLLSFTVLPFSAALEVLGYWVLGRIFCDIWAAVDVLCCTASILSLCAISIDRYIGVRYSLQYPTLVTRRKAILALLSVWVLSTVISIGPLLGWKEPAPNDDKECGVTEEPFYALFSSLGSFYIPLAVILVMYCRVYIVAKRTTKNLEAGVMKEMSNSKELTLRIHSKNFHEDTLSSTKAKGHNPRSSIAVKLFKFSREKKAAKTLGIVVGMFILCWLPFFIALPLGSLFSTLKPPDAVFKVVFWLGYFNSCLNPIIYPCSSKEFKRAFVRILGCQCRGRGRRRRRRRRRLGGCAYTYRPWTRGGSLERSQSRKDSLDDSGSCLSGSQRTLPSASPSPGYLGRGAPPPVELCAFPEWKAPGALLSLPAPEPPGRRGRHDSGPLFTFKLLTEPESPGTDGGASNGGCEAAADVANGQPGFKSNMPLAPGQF
Outline: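 Values are percent inhibition of specific [3H]prazosin (0.3 nM) binding or estimated Ki, from filtration counting. Human α1B recombinant membranes, Tris-HCl pH 7.4 buffer with MgCl2 and EDTA, 60 min at 25 °C, 1% DMSO vehicle; 10 μM prazosin defined nonspecific binding.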

SMILES	Ki [1] [nM]	Ki [2] [nM]	Ki [3] [nM]
Cc1ccc2c(c1)c1c(n2CC(OC(=O)N2CCCC2)c2ccncc2)CCN(C)C1 (single isomer, unassigned) [4b]	3.6	126	269
Cc1ccc2c(c1)c1c(n2CC(C)(O)c2ccc(F)nc2)CCN2CCCC12 (single isomer, unassigned) [6a]	1.4	55	25
Cc1ccc2c(c1)c1c(n2CC(C)(O)c2ccncc2)CCN2CCCC12 (single isomer, unassigned) [13a]	1.85	50	10
Cc1ccc2c(c1)c1c(n2CC(C)(O)c2ccncc2)CCN2CCCC12 (single isomer, unassigned) [13b]	1.22	13	35
